We go through 2 molecules from publication PMC11986975, “A Cdk5 inhibitor restores cognitive function and alleviates type 2 diabetes in mice” (iScience, 2025).

SMILES strings stand for the structures.

Data set [1] deals with HFD-fed mice. Put plainly: Elevated plus maze (EPM) in HFD mice. The class given is in vivo. Conditions: i.p., 20 days, compared to HFD group. An excerpt: In order to examine anxiety-like behavior, phenotype transgenic and knockout mice, and screen for anxiolytic and anxiogenic medicines, this maze takes advantage of the natural fear of open, high areas in rodents.[56]^,[57]
The EPM experiment is a widely utilized technique in behavioral neuroscience to evaluate anxiety-related behaviors in mice.[57] The apparatus comprises two open arms and two closed arms arranged in a plus-shaped configuration and elevated above the ground. Mice are introduced to the center of the maze, and their movements are observed over a set period of 5 min.[56]^,[58] The amount of time spent in the open arms versus the closed arms is recorded, with more time in the open arms indicating lower anxiety levels. The distance traveled in each arm were also analyzed using ANYmaze software. This method leverages the natural tendency of rodents to avoid open spaces and seek enclosed areas.

The nature of data set [2]: LC-MS of brain lysate and serum after intraperitoneal injection in HFD mouse model. The class given is in vivo. Conditions: C57BL/6J, ip, HFD mice, LC-MS peak area in brain lysate compared to serum. On the procedure:
To assess the BBB penetrability of BLINK11 and BLINK15 in the high-fat diet (HFD) mouse model, intraperitoneal injections were administered, and liquid chromatography-mass spectrometry (LC-MS) analysis was conducted on both brain lysate and serum samples (Figure 3). The LC-MS results depicted in Figures 3A and 3B showcase the peaks corresponding to the BLINK11 compound in the brain lysate and serum, respectively. Similarly, Figures 3C and 3D illustrate the peaks associated with the BLINK15 compound in the brain lysate and serum, respectively. […] These analyses provide a quantitative measure of the presence of the compounds in the respective samples. Furthermore, to ascertain the relative distribution of BLINK11 and BLINK15 in the brain compared to serum, the percentages of each compound present in the brain were calculated and plotted in a bar graph (Figure 3G). […]
Metabolites, comprising the entire spectrum within the lysate excluding proteins but inclusive of drugs, were extracted from plasma and brain tissue homogenate samples. […] Compounds were analyzed in these samples using a multiple reaction monitoring method (using parameters mentioned in Table S5) on a triple quadrupole hybrid ion trap mass spectrometer (QTRAP 6500+, SCIEX) coupled with an ExionLC UHPLC system (SCIEX). […] Relative quantification was performed using MultiQuantTM software v.3.0 (SCIEX). […]

The subject of data set [3] is HFD-fed mice. As to the kind of experiment: Body weight in HFD-fed T2D mice. Conditions: i.p. The class given is in vivo. The procedure:
The HFD-fed mice model received intraperitoneal injections of the compounds BLINK11 and BLINK15 at doses of 20 mg/kg/day and 40 mg/kg/day for a total of 20 days in the third month of HFD feeding. The body weight was measured at the beginning of the drug therapy, on day 0, and then again on days 10 and 20, as indicated in Figure 4A.
Two groups of four-week-old male C57BL/6J mice were established. One group (n = 8) was fed a standard laboratory mouse chow diet (Protein: 20% kcal, Carbohydrate: 70% kcal, Fat: 10% kcal), while the other group (n = 40) was placed on a HFD (Protein: 20% kcal, Carbohydrate: 20% kcal, Fat: 60% kcal).[23] Body weight, ITT, and GTT were assessed. Mice were treated with BLINK11 and BLINK15 inhibitors at 20 mg/kg and 40 mg/kg doses for 20 days. The study included six groups: Control, HFD, HFD_BLINK11_20, HFD_BLINK11_40, HFD_BLINK15_20, and HFD_BLINK15_40. […] The control used in the study are vehicle treated-control group (5% DMSO, 0.1% tween 20 and 1X PBS). The doses of 20 mg/kg and 40 mg/kg body weight were selected based on evidence from previous studies evaluating the efficacy and safety of similar kinase inhibitors.[45]^,[46]^,[47] […] The 40 mg/kg dose was selected to assess dose-dependent efficacy and represents the upper limit of tolerability based on pharmacokinetic and toxicity data.

Another data set addresses Cdk5/p25 (Homo sapiens, UniProt Q00535). Put plainly: Cdk5 kinase assay (ADP-Glo) with Cdk5/p25 complex. Type of data set: biochemical. To be noted: 10 μM ATP, histone substrate, inhibitor 0-100 nM. On the procedure: The test tube Cdk5 Kinase assay was performed utilizing Cdk5/p35 and Cdk5/p25 complexes as kinases, following the modified procedure outlined in a previous study,[52] using a Promega ADP-GloTM Kinase Assay kit. The reaction was carried out with 10 μM ATP and 2 μg of histone as the substrate for Cdk5 complexes. To study the inhibition patterns, 19 Cdk5 inhibitors (BLINK1-19) identified through molecular docking were added to the Cdk5 kinase reaction in increasing concentrations ranging from 0 to 100 nM. The IC50 (half-maximal inhibitory concentration) values of all the inhibitors were calculated based on Log(inhibitor) vs. normalized response using GraphPad software.
A general note: ADP-Glo turns the ADP formed in a reaction into a luminescent signal.

For data set [4], the system named is HFD-fed mice. Put plainly: Grip strength test in HFD mice. Type of data set: in vivo. To be noted: i.p., 40 mg/kg/day, 20 days. The procedure:
A grip strength meter was used to measure the forelimb grip strength in mice.[54] The mouse was given a chance to grab the gauge with its forelimbs before having its tail gently pulled back. Digital transducers were used to record the muscular force. Five trials were conducted on each mouse.[23]

Chain of Cdk5/p25 (Q00535 whole entry, species assumed): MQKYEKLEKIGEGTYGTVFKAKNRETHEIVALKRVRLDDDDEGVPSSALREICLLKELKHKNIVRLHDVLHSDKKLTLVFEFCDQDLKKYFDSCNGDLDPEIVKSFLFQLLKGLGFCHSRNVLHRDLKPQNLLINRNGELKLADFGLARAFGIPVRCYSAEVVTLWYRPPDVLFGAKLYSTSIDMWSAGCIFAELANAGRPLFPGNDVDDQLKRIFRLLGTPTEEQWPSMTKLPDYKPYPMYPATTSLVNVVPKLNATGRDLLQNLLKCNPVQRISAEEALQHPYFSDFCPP
Chain of Cdk5/p25 (Q15078 99-307 partner limits assumed, species assumed): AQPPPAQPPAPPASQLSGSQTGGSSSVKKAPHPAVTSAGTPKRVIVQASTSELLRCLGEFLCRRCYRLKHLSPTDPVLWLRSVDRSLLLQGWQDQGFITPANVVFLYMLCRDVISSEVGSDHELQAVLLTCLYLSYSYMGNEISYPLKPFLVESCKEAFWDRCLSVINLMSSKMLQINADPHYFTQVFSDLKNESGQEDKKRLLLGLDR

For `O=C(COc1ccccc1C(=O)Nc1cccc(Cl)c1Cl)Nc1ccc(N2CCOCC2)c(Cl)c1` [BLINK11, 2-(2-((3-chloro-4-morpholinophenyl)amino)-2-oxoethoxy)-N-(2,3-dichlorophenyl)benzamide], in the data set with HFD-fed mice [1], the “Anxiety behavior in elevated plus maze (time in open and closed arms)” value is “rescuing effect on anxiety behavior”. In data set [2], this molecule came in with a partition ratio (Kp) of 0.38. Also, the “Body weight gain caused by HFD” value with HFD-fed mice [3] (both dosages 20 and 40 mg/kg/day, 20 days) is on record as “rescued from the gain in body weight”. The same molecule registered an IC50 against Cdk5/p25 of 14.7 nM. For the same molecule, the Grip strength result in the data set with HFD-fed mice [4] was “rescue behavior”.
On to `COc1ccc(C(=O)C[C@@]2(O)C(=O)N(Cc3ccccc3)c3ccc(Br)cc32)cc1[N+](=O)[O-]` [BLINK15], for which the “Anxiety behavior in elevated plus maze (time in open and closed arms)” value in the data set on HFD-fed mice [1] is recorded as “no significant difference compared to the HFD group”. The Kp in data set [2] was found to be 0.11. The “Body weight gain caused by HFD” value in the data set with HFD-fed mice [3] (40 mg/kg/day, 20 days (only the higher dose)) was “significant recovery”. This molecule also gave an IC50 on Cdk5/p25 of 12.1 nM. In the data set on HFD-fed mice [4], the Grip strength result is reported as “rescue behavior”.

By Kp is commonly meant the ratio of the level in a tissue or fluid to that in plasma or blood. The term IC50 denotes the concentration that gives 50% inhibition. Read a low IC50 as greater potency.
